How the values were obtained:
Mus musculus [1] = experiment: In-vivo PROTAC activity at BRM/VHL in CD-1 mouse xenografted with human HCC2302 cells at 20 mg/kg, iv measured for 96 hrs; format: functional
[2] = Clearance in mouse at 1 mg/kg, iv measured upto 60 mins by LC-MS/MS analysis; format: ADME, organism-based; conditions: in vivo, 1 h
[3] = Plasma protein binding in mouse incubated for 15 mins by LC-MS/MS analysis; format: ADME, cell-free; conditions: read-out: PPB (converted)
NCI-H1944 = experiment: Antiproliferative activity against BRM-dependent human NCI-H1944 cells assessed as growth inhibition incubated for 7 days by celltiter glo 2.0 assay; format: functional; conditions: NCI-H1944, 168 h, time 7 day
Calu-6 = experiment: Antiproliferative activity against human Calu-6 cells assessed as growth inhibition incubated for 7 days by celltiter glo 2.0 assay; format: functional; conditions: Calu-6, 168 h, time 7 day
[4] = target: von Hippel-Lindau disease tumor suppressor/SWI/SNF-related matrix-associated actin-dependent regulator of chromatin subfamily A member 4 (Homo sapiens, UniProt P51532+P40337); experiment: PROTAC activity at VHL/ BRG1 in human SW1573 cells assessed as induction of BRG1 degradation incubated for 22 hrs by Western blotting analysis; format: cell-based
[5] = Metabolic stability in human liver microsome assessed as hepatic extraction ratio measured upto 60 mins by LC-MS/MS analysis; format: ADME; conditions: liver microsomes
Mus musculus [6] = experiment: In-vivo PROTAC activity at BRM/VHL in CD-1 mouse xenografted with Murine stromal cell line at 20 mg/kg, iv measured for 96 hrs; format: functional
[7] = target: T1, von Hippel-Lindau disease tumor suppressor/SWI/SNF-related matrix-associated actin-dependent regulator of chromatin subfamily A member 2 (Homo sapiens, UniProt P51531+P40337); experiment: PROTAC activity at VHL/BRM in human SW1573 cells assessed as induction of […] incubated for 22 hrs by Western blotting analysis; format: cell-based
Target sequence in this assay (P51531 whole entry): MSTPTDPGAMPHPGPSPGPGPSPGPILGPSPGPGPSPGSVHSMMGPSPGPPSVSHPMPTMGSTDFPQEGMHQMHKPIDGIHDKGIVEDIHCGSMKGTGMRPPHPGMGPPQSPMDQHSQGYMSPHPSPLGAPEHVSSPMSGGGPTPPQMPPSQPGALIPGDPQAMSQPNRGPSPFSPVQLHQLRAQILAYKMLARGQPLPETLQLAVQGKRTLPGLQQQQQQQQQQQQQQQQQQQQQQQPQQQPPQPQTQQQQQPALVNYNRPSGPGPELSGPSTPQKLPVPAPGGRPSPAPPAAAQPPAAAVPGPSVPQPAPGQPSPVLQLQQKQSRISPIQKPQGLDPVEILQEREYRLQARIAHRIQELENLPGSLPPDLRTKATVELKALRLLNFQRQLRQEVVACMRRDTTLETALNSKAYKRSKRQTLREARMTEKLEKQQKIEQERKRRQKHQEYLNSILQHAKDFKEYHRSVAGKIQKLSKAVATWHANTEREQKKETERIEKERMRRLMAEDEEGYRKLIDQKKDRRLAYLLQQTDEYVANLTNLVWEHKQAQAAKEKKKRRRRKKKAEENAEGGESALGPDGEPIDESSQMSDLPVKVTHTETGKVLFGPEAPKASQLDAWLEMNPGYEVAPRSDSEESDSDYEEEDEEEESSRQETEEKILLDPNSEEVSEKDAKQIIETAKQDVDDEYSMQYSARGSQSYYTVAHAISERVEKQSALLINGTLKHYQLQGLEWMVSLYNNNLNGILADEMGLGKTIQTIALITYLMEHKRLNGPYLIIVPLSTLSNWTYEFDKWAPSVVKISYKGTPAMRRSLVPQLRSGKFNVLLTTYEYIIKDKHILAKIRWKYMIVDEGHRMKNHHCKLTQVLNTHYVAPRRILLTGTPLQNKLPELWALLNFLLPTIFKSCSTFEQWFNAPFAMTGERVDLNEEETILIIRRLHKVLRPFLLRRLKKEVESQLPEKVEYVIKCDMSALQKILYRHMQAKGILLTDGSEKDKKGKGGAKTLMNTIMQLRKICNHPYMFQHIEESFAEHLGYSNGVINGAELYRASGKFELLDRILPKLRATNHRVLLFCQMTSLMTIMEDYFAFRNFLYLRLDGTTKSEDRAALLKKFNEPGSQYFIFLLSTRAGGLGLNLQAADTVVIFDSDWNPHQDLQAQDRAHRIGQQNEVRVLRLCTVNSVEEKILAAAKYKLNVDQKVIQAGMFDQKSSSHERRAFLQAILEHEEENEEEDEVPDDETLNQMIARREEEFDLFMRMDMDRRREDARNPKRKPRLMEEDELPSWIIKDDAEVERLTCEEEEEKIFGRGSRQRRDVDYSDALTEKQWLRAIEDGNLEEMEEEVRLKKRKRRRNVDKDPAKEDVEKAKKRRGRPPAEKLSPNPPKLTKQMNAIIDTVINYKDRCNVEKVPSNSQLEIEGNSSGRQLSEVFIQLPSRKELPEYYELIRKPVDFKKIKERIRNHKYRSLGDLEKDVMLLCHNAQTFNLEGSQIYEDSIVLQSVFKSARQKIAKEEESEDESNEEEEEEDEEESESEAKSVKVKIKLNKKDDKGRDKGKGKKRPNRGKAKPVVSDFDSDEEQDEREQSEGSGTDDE
Target sequence in this assay (P40337 whole entry): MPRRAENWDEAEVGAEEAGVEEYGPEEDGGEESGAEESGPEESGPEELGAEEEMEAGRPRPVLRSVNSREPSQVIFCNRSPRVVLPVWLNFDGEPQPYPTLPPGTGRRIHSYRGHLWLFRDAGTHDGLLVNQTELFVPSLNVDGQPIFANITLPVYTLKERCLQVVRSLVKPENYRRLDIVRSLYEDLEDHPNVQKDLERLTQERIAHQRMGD

[8] = Half life in mouse at 1 mg/kg, iv measured upto 60 mins by LC-MS/MS analysis; format: ADME, organism-based; conditions: in vivo
[9] = target: T2, SWI/SNF-related matrix-associated actin-dependent regulator of chromatin subfamily A member 2 (Homo sapiens, UniProt P51531); experiment: Binding affinity to his-tagged BRM bromodomain (unknown origin) assessed as dissociation constant
[10] = target: T2, SWI/SNF-related matrix-associated actin-dependent regulator of chromatin subfamily A member 2; experiment: Binding affinity to his-tagged BRM bromodomain (unknown origin) by alpha-LISA assay
[11] = Drug concentration in mouse tumor at 20 mg/kg, ip measured for 96 hrs; format: ADME, organism-based, Neoplasm; conditions: read-out: Ct
Homo sapiens [12] = species: Homo sapiens; experiment: Ratio of DC50 for VHL/ BRG1 in human SW1573 cells to DC50 for VHL/BRM in human SW1573 cells; format: cell-based
[13] = Drug concentration in mouse plasma measured for 24 hrs; format: ADME, cell-free
Homo sapiens [14] = species: Homo sapiens; experiment: Ratio of binding affinity to VHL/BRM bromodomain (unknown origin) assessed as ternary complex association half life by SPR analysis to binding affinity to VHL/ BRG1 bromodomain (unknown origin) assessed as ternary complex association half life by SPR analysis
[15] = target: T1, von Hippel-Lindau disease tumor suppressor/SWI/SNF-related matrix-associated actin-dependent regulator of chromatin subfamily A member 2
Target sequence in this assay (P40337 whole entry, looked up): as the sequence (P40337 whole entry) above
Target sequence in this assay (P51531 whole entry, looked up): as the sequence (P51531 whole entry) above

T2 sequence (P51531 whole entry): as above
Sequence of von Hippel-Lindau disease tumor suppressor/SWI/SNF-related matrix-associated actin-dependent regulator of chromatin subfamily A member 4 (P51532 whole entry): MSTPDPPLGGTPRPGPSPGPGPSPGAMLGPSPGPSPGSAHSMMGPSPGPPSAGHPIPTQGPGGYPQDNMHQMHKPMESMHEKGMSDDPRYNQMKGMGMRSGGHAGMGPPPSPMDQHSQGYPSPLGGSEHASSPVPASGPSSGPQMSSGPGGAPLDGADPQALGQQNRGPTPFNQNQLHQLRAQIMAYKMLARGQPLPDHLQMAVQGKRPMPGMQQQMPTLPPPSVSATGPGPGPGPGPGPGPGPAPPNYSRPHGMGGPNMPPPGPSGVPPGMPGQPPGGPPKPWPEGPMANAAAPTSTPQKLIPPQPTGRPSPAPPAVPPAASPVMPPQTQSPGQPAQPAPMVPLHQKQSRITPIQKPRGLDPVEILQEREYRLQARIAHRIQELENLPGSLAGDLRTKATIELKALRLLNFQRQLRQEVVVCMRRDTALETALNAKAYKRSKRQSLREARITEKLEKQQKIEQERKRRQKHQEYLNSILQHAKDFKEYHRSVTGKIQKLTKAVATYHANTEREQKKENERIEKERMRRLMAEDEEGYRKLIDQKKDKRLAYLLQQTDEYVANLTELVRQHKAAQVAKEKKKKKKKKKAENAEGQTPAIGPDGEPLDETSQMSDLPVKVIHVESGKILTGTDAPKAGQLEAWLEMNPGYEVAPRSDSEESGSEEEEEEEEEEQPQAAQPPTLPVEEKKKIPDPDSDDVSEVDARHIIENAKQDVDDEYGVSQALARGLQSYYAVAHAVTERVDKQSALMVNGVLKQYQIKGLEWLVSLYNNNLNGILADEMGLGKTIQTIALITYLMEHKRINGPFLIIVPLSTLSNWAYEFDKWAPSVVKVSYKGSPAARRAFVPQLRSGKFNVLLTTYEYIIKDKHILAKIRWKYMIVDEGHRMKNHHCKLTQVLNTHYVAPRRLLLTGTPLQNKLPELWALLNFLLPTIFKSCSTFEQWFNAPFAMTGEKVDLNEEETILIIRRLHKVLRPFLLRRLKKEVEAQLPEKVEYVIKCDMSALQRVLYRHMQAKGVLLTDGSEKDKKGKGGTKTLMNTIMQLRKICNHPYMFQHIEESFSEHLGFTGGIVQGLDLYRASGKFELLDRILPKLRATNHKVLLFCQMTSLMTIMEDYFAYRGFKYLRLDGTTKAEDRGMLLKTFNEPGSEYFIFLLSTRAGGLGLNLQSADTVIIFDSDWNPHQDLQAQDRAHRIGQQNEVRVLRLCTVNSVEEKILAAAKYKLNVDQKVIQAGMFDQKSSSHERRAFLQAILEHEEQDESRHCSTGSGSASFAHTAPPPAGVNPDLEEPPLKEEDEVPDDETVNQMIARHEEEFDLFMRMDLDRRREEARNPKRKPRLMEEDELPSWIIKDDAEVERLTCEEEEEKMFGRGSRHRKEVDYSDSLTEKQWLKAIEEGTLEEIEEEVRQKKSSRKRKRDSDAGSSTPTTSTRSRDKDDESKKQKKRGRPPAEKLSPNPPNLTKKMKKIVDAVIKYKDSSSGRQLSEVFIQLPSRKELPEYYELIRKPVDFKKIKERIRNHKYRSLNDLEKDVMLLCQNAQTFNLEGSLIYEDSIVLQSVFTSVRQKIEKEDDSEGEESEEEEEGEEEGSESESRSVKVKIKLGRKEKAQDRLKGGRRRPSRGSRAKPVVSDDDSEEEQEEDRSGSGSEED
Sequence of von Hippel-Lindau disease tumor suppressor/SWI/SNF-related matrix-associated actin-dependent regulator of chromatin subfamily A member 4 (P40337 whole entry): as the sequence (P40337 whole entry) above

Compound | Activity (Mus musculus [1]) [%] | clearance [2] [mL/min/kg] | fraction unbound at 0.25 h [3] | GI50 (NCI-H1944) [nM] | GI50 (Calu-6) [nM] | DC50 [4] [nM] | hepatic extraction ratio at 1 h [5] | Activity (Mus musculus [6]) [%] | DC50 [7] [nM] | half-life [8] [h] | Kd [9] [nM] | IC50 [10] [nM] | concentration at 96 h [11] [ng/g] | Ratio (Homo sapiens [12]) | concentration at 24 h [13] [nM] | Ratio (Homo sapiens [14]) | T1/2 [15] [s]
Cc1ncsc1-c1ccc([C@H](C)NC(=O)[C@@H]2C[C@@H](O)CN2C(=O)[C@@H](c2cc(N3CCN(CC4CCN(C[C@H]5C[C@H](Oc6cc(N7C8CCC7CN(c7cc(-c9ccccc9O)nnc7N)C8)ccn6)C5)CC4)CC3)no2)C(C)C)cc1 | 95 | 12 | 0.035 | 0.72 | 10 | 1.4 | 0.15 | 83 | 0.062 | 17 |  |  |  |  |  |  | 
Cc1ncsc1-c1ccc([C@H](C)NC(=O)[C@@H]2C[C@@H](O)CN2C(=O)[C@@H](c2cc(N3CCC(CN4CCC(O[C@H]5C[C@H](Oc6cc(N7C8CCC7CN(c7cc(-c9ccccc9)nnc7N)C8)ccn6)C5)CC4)CC3)no2)C(C)C)cc1 |  |  |  | > 5000 |  |  |  |  |  |  | 8540 |  |  |  |  |  | 
COc1cc(N2C3CCC2CN(c2cc(-c4ccccc4O)nnc2N)C3)ccn1 |  |  |  | > 300 | > 300 |  |  |  |  |  |  | 1.2 |  |  |  |  | 
Cc1ncsc1-c1ccc([C@H](C)NC(=O)[C@@H]2C[C@@H](O)CN2C(=O)[C@@H](c2cc(N3CCC(CN4CCC(Oc5cc(N6C7CCC6CN(c6cc(-c8ccccc8O)nnc6N)C7)ccn5)CC4)CC3)no2)C(C)C)cc1 | 83 | 6.7 | 0.006 | 0.23 | 3.7 | 0.99 | 0.41 | 59 | 0.053 | 6.7 |  |  | 774 |  |  |  | 
Cc1ncsc1-c1ccc([C@H](C)NC(=O)[C@@H]2C[C@H](O)CN2C(=O)[C@@H](c2cc(N3CCC(CN4CCC(O[C@H]5C[C@H](Oc6cc(N7C8CCC7CN(c7cc(-c9ccccc9O)nnc7N)C8)ccn6)C5)CC4)CC3)no2)C(C)C)cc1 |  |  |  | > 300 |  |  |  |  |  |  |  |  |  |  |  |  | 
Cc1ncsc1-c1ccc([C@H](C)NC(=O)[C@@H]2C[C@@H](O)CN2C(=O)[C@@H](c2cc(OCCN3CCN(CCOc4cc(N5C6CCC5CN(c5cc(-c7ccccc7O)nnc5N)C6)ccn4)C[C@@H]3C)no2)C(C)C)cc1 |  |  |  | 0.72 | 38 | 2.7 | 0.83 |  | 0.11 |  |  |  |  | 25 |  |  | 
Cc1ncsc1-c1ccc([C@H](C)NC(=O)[C@@H]2C[C@@H](O)CN2C(=O)[C@@H](c2cc(OCCN3CCN(CCOc4cc(N5C6CCC5CN(c5cc(-c7ccccc7O)nnc5N)C6)ccn4)[C@H](C)C3)no2)C(C)C)cc1 | 0 |  | 0.015 | 0.26 | 12 | 0.71 | 0.83 | 0 | 0.055 |  |  |  | 76 | 13 | 22 |  | 
COCCOc1cc(N2C3CCC2CN(c2cc(-c4ccccc4O)nnc2N)C3)ccn1 |  |  |  |  |  |  |  |  |  |  |  | 2.7 |  |  |  |  | 
Cc1ncsc1-c1ccc([C@H](C)NC(=O)[C@@H]2C[C@@H](O)CN2C(=O)[C@@H](c2cc(OCC#Cc3ccc(O[C@H]4C[C@H](Oc5cc(N6C7CCC6CN(c6cc(-c8ccccc8O)nnc6N)C7)ccn5)C4)cn3)no2)C(C)C)cc1 |  | 22 | 0.016 | 0.7 | 28 | 5.1 | 0.15 |  | 27 | 1.5 |  |  |  | 19 | 129 |  | 
Cc1ncsc1-c1ccc(CNC(=O)[C@@H]2C[C@@H](O)CN2C(=O)[C@@H](NC(=O)COCCOCCOCCOc2cc(N3C4CCC3CN(c3cc(-c5ccccc5O)nnc3N)C4)ccn2)C(C)(C)C)cc1 |  |  |  |  |  | 703 |  |  | 32 |  |  |  |  | 7.8 |  |  | 
Cc1ncsc1-c1ccc(CNC(=O)[C@@H]2C[C@@H](O)CN2C(=O)[C@@H](c2cc(OCCN3CCN(CCOc4cc(N5C6CCC5CN(c5cc(-c7ccccc7O)nnc5N)C6)ccn4)CC3)no2)C(C)C)cc1 |  |  | 0.015 | 3.6 | 62 | 9.5 | 0.65 |  | 0.39 |  |  |  |  |  |  |  | 
Cc1ncsc1-c1ccc(CNC(=O)[C@@H]2C[C@@H](O)CN2C(=O)[C@@H](c2cc(OCCOCCOCCOc3cc(N4C5CCC4CN(c4cc(-c6ccccc6O)nnc4N)C5)ccn3)no2)C(C)C)cc1 |  |  |  |  |  | 5.9 |  |  | 0.76 |  |  |  |  | 2.2 |  |  | 
COc1cc(N2CCN(c3cc(-c4ccccc4O)nnc3N)CC2)ccn1 |  |  |  | > 300 | > 300 |  |  |  |  |  |  | 18 |  |  |  |  | 
Cc1ncsc1-c1ccc([C@H](C)NC(=O)[C@@H]2C[C@@H](O)CN2C(=O)[C@@H](c2cc(N3CCN(C[C@H]4C[C@H](Oc5cc(N6C7CCC6CN(c6cc(-c8ccccc8O)nnc6N)C7)ccn5)C4)CC3)no2)C(C)C)cc1 | 87 | 11 | 0.011 | 0.45 | 6.8 | 1.3 | 0.27 | 53 | 0.09 | 3.7 |  |  | 75 |  |  |  | 
Cc1ncsc1-c1ccc([C@H](C)NC(=O)[C@@H]2C[C@H](O)CN2C(=O)[C@@H](c2cc(OCCN3CCC(O[C@H]4C[C@H](Oc5cc(N6C7CCC6CN(c6cc(-c8ccccc8O)nnc6N)C7)ccn5)C4)CC3)no2)C(C)C)cc1 |  |  |  | > 300 |  |  |  |  |  |  |  |  |  |  |  |  | 
Cc1ncsc1-c1ccc([C@H](C)NC(=O)[C@@H]2C[C@@H](O)CN2C(=O)[C@@H](c2cc(N3CCC(O[C@H]4C[C@H](Oc5cc(N6C7CCC6CN(c6cc(-c8ccccc8O)nnc6N)C7)ccn5)C4)CC3)no2)C(C)C)cc1 | 70 | 9.2 | 0.019 | 0.3 | 4.4 | 1.8 | 0.14 | 22 | 0.14 | 1.4 |  |  | 175 | 13 | 112 |  | 
Cc1ncsc1-c1ccc([C@H](C)NC(=O)[C@@H]2C[C@@H](O)CN2C(=O)[C@@H](c2cc(OCCN3CCC(O[C@H]4C[C@H](Oc5cc(N6C7CCC6CN(c6cc(-c8ccccc8)nnc6N)C7)ccn5)C4)CC3)no2)C(C)C)cc1 |  |  |  | > 5000 |  |  |  |  |  |  | 10300 |  |  |  |  |  | 
Cc1ncsc1-c1ccc([C@H](C)NC(=O)[C@@H]2C[C@@H](O)CN2C(=O)[C@@H](c2cc(OCCN3CCN(CCOc4cc(N5C6CCC5CN(c5cc(-c7ccccc7O)nnc5N)C6)ccn4)CC3)no2)C(C)C)cc1 |  |  | 0.016 | 0.17 | 7 | 1.5 | 0.72 |  | 0.068 |  |  |  |  | 22 |  | 0.33 | 6
Cc1ncsc1-c1ccc([C@H](C)NC(=O)[C@@H]2C[C@@H](O)CN2C(=O)[C@@H](c2cc(N3CCN(CCN4CCC(O[C@H]5C[C@H](Oc6cc(N7C8CCC7CN(c7cc(-c9ccccc9O)nnc7N)C8)ccn6)C5)CC4)CC3)no2)C(C)C)cc1 | 56 | 9.6 | 0.034 | 1.3 | 11 | 3.2 | 0.4 | 28 | 0.085 | 13 |  |  | 840 | 38 | 108 |  | 
